In publication PMC2653091 (Journal of medicinal chemistry, 2009):
Where two headings read alike, the source gives them in different places. Where no end group is shown, it is not given here.

Experiments:
[1] = target: T1, mouse NPSR (Mus musculus, UniProt Q8BZP8); assay: Calcium mobilization in HEK293mNPSR cells, agonist mode; assay type: cell-based
T1 sequence (Q8BZP8 1-371): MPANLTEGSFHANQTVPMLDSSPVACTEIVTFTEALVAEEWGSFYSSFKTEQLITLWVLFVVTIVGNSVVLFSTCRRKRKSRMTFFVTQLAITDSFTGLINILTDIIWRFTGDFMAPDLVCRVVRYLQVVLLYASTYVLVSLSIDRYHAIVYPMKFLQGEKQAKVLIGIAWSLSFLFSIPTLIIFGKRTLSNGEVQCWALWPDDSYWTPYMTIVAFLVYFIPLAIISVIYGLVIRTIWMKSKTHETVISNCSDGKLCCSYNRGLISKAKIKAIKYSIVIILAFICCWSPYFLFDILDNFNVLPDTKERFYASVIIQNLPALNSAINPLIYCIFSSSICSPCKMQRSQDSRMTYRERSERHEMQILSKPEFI

[2] = test system: NPSR; settings: cited from earlier work
[3] = test system: mouse vertical activity; settings: at doses able to counteract the stimulatory effect of exogenously applied NPS; cited from earlier work

**Q.** Which Emax ([1]; read-out: Agonist Emax ± sem, SEM) does the source give for “SFRNGVGTGMKKTSFQRAKS [NPS, Neuropeptide S]” here?
**A.** Its Emax is 295 ± 22%.

**Q.** For [Ala^3]NPS, which “Pharmacological profile at NPSR” value ([2]; ref 17) is on record?
**A.** Its value is “partial agonist”.

**Q.** With “[Trp^5]NPS (SFRNWVGTGMKKTSFQRAKS; Neuropeptide S; UniProt P0C0P6 70-89, looked up, variant G5W) [Compound 2]” as the molecule, how does the “Agonist effect at 10 μM (crc incomplete)” value ([1]; 10 μM, % over the baseline, HEK293mNPSR) read?
**A.** Its value is 30%.

**Q.** With “[Ala^5]NPS (SFRNAVGTGMKKTSFQRAKS; Neuropeptide S; UniProt P0C0P6 70-89, looked up, variant G5A)” as the molecule, how does the “Pharmacological profile at NPSR” value ([2]; ref 6, 15) read?
**A.** The value was “high potency NPSR full agonist”.

**Q.** What about the “Pharmacological profile at NPSR” value ([2]; ref 15) of the same molecule?
**A.** Its value is “full agonist”.

**Q.** Which “Pharmacological profile at NPSR” value ([2]; ref 15) does the source give for [Aib^5]NPS here?
**A.** Its value is “partial agonists”.

**Q.** Which “Pharmacological profile at NPSR” value ([2]; ref 15) does the source give for [D-Ala^5]NPS here?
**A.** The value was “partial agonist”.

**Q.** What does the source list for `O=C(NCc1ccc(F)cc1)N1CCN2C(=O)OC(c3ccccc3)(c3ccccc3)C2C1` (stereo not drawn) [SHA 68, 3-Oxo-1,1-diphenyl-tetrahydro-oxazolo[3,4-a]pyrazine-7-carboxylic acid 4-fluoro-benzylamide]?
**A.** Pharmacological profile at NPSR ([2]; ref 18): pure antagonist; Effect per se on mouse vertical activity [3]: selective reduction of mouse vertical activity
